According to patent US9938261B2, “Heterocyclic compounds and methods of use thereof” (AMBIT BIOSCIENCES CORPORATION, priority 2011, dated 2018):

Key:
PDGFRβ = target: T1, PDGFRβ (Homo sapiens, UniProt P09619); experiment: Competition binding assay, PDGFRβ Kd; conditions: competition binding
T1 construct: made in house
Outline: (§1)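 Kinases, either T7 phage fusions or HEK-293-expressed and DNA-tagged, competed with test compounds for immobilized biotinylated affinity ligand on streptavidin beads in binding buffer (20% SeaBlock, 0.17×PBS, 0.05% Tween 20, 6 mM DTT). After 1 hour at room temperature, bead-bound kinase was eluted and quantified by qPCR; Kd from eleven-point threefold dilutions.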

CSF1R [1] = target: T2, CSF1R (Homo sapiens, UniProt P07333); experiment: Competition binding assay, CSF1R Kd; set-up: made in house; conditions: competition binding
T2 sequence (P07333 20-972): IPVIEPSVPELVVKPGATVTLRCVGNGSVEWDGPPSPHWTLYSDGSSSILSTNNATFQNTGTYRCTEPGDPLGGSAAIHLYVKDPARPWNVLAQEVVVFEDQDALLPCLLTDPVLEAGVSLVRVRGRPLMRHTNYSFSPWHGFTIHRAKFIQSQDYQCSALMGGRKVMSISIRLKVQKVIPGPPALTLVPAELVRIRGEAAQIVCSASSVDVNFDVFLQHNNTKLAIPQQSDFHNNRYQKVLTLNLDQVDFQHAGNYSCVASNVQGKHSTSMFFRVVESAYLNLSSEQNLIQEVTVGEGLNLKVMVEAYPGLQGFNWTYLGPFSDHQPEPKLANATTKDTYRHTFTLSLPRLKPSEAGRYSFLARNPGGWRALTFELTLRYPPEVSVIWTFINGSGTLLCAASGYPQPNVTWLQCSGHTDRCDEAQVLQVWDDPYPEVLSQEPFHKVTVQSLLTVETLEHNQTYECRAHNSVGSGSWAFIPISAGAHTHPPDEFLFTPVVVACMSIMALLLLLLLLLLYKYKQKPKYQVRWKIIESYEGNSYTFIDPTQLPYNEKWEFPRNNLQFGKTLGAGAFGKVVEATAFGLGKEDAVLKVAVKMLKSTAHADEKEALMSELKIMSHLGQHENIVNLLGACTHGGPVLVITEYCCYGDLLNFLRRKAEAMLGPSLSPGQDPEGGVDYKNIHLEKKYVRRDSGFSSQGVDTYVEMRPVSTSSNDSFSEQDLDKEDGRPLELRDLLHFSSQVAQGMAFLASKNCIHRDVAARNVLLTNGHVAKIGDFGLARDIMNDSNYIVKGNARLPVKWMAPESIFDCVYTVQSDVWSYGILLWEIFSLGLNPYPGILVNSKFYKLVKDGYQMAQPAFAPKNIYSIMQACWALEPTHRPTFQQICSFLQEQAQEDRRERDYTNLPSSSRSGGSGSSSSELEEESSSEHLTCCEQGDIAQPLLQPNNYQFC
Outline: as §1

M-NFS-60 cells = experiment: M-NFS-60 cell proliferation assay (Alamar Blue); type: cell-based, mouse; conditions: Mus musculus; M-NFS-60 cell proliferation; read-out: CSF1R M-NFS-60 CTB:IC50
Outline: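 Alamar Blue reduction (3 h; 560/590 nm) measured viability after 72 h, 37 °C treatment with nine half-log compound concentrations at 0.5% DMSO. Cells: M-CSF-dependent (20 ng/mL) murine M-NFS-60 in RPMI plus 10% FBS. IC50s, averaged from duplicates, reflect half-maximal inhibition of proliferation relative to control.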

CSF1R [2] = target: T2, CSF1R; experiment: HEK293 CSF1R phosphorylation MSD assay; type: cell-based; set-up: expressed in transfected cells; host or cells: HEK293; conditions: HEK293 cells, M-CSF stimulated CSF1R phosphorylation, MSD; read-out: HEK293 pCSF1R M-CSF MSD:IC50
Outline: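 Ligand-induced CSF1R autophosphorylation was measured by MSD sandwich assay: CSF1R-FKBP from lysates captured via FK506, anti-phosphotyrosine readout. Cells were exposed to compound for 2 h (9-point, half-log, 0.5% DMSO) before 5 min 50 ng/mL M-CSF. Reported IC50 is the mean of duplicate-plate IC50s relative to DMSO control.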

T1 sequence (P09619 33-1106): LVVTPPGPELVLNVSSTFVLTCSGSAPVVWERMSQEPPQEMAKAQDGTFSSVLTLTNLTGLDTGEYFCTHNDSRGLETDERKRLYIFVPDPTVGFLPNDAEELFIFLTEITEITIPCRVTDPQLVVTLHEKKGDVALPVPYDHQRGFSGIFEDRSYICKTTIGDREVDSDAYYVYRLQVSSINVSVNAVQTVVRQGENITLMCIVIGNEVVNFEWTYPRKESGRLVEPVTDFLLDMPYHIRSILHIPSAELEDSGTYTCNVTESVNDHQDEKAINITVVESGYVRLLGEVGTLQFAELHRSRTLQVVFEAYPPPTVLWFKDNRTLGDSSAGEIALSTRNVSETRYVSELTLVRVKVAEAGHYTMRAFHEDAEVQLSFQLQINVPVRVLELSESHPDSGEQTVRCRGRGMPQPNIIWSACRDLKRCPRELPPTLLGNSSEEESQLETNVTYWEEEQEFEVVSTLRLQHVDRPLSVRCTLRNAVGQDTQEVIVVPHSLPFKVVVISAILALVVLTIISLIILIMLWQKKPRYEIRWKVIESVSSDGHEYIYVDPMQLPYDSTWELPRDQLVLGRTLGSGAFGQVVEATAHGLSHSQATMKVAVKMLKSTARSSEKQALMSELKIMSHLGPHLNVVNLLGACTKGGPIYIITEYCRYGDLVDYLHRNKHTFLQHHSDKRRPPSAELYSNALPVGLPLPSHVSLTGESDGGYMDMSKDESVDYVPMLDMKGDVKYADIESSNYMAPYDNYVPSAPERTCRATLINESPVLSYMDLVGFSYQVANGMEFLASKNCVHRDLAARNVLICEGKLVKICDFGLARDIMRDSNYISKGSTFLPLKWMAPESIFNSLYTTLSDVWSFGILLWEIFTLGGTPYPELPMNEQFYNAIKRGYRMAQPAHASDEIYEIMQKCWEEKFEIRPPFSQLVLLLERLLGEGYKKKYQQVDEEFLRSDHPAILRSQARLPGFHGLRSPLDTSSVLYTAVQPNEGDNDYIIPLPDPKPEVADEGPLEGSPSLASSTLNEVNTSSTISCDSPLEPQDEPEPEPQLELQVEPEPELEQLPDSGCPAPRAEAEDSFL

| SMILES | Kd (PDGFRβ) | Kd (CSF1R [1]) | IC50 (CSF1R [2]) | IC50 (M-NFS-60 cells) |
| --- | --- | --- | --- | --- |
| OC[C@H]1CC[C@@H](Nc2nc3ccc(Cn4cnc5cc(F)cnc54)cc3s2)CC1 [Example 180, (cis-4-((6-((6-fluoro-3H-imidazo[4,5-b]pyridin-3-yl)methyl)benzo[d]thiazol-2-yl)amino)cyclohexyl)methanol] | 50 to 500 nM | 20 to 50 nM | > 500 nM | > 1500 nM |
| C=Cc1ccc2c(c1)ncn2Cc1ccc2nc(N[C@@H]3CCCC[C@H]3O)sc2c1 [Example 183, (1R,2R)-2-((6-((5-vinyl-1H-benzo[d]imidazol-1-yl)methyl)benzo[d]thiazol-2-yl)amino)cyclohexanol] | 50 to 500 nM | ≤ 5 nM | ≤ 50 nM | ≤ 50 nM |
| OC[C@H]1CC[C@H](Nc2nc3ccc(Cn4cnc5cc(F)cnc54)cc3s2)CC1 [Example 179, (trans-4-((6-((6-fluoro-3H-imidazo[4,5-b]pyridin-3-yl)methyl)benzo[d]thiazol-2-yl)amino)cyclohexyl)methanol] | ≤ 50 nM | 5 to 20 nM | 200 to 500 nM | 400 to 1500 nM |
| O[C@@H]1CCCC[C@H]1Nc1nc2ccc(Cn3cnc4cnc(C(F)(F)F)nc43)cc2s1 [Example 105, (1R,2R)-2-((6-((2-(trifluoromethyl)-9H-purin-9-yl)methyl)benzo[d]thiazol-2-yl)amino)cyclohexanol] | 500 to 2000 nM | 5 to 20 nM | 200 to 500 nM | 400 to 1500 nM |
| CN1CCN(c2ccc3ncc(Cc4ccc5nc(N[C@@H]6CCCC[C@H]6O)sc5c4)n3n2)CC1 [Example 178, (1R,2R)-2-((6-((6-(4-methylpiperazin-1-yl)imidazo[1,2-b]pyridazin-3-yl)methyl)benzo[d]thiazol-2-yl)amino)cyclohexanol] | 500 to 2000 nM | 5 to 20 nM | 200 to 500 nM | 400 to 1500 nM |
| CS[C@@H]1CCCC[C@H]1Nc1nc2ccc(Cn3cnc4cc(F)cnc43)cc2s1 [Example 181, 6-((6-fluoro-3H-imidazo[4,5-b]pyridin-3-yl)methyl)-N-((1R,2R)-2-(methylthio)cyclohexyl)benzo[d]thiazol-2-amine] | ≤ 50 nM | 5 to 20 nM | 200 to 500 nM | 400 to 1500 nM |
| O[C@@H]1CCCC[C@H]1Nc1nc2ccc(Cc3cnc4ccc(Br)nn34)cc2s1 [Example 177, (1R,2R)-2-((6-((6-bromoimidazo[1,2-b]pyridazin-3-yl)methyl)benzo[d]thiazol-2-yl)amino)cyclohexanol] | ≤ 50 nM | ≤ 5 nM | ≤ 50 nM | ≤ 50 nM |
| O[C@@H]1CCCC[C@H]1Nc1nc2ccc(Cn3cnc4cc(OC5COC5)ccc43)cc2s1 [Example 182, (1R,2R)-2-((6-((5-(oxetan-3-yloxy)-1H-benzo[d]imidazol-1-yl)methyl)benzo[d]thiazol-2-yl)amino)cyclohexanol] | 50 to 500 nM | ≤ 5 nM | ≤ 50 nM | 50 to 400 nM |
| Cn1cc(-c2ccc3c(c2)ncn3Cc2ccc3nc(N[C@@H]4CCCC[C@H]4O)sc3c2)c(C(F)(F)F)n1 [Example 185, (1R,2R)-2-((6-((5-(1-methyl-3-(trifluoromethyl)-1H-pyrazol-4-yl)-1H-benzo[d]imidazol-1-yl)methyl)benzo[d]thiazol-2-yl)amino)cyclohexanol] | ≤ 50 nM | 5 to 20 nM | 50 to 200 nM | 50 to 400 nM |
| O[C@@H]1CCCC[C@H]1Nc1nc2ccc(Cc3cnc4cccc(F)n34)cc2s1 [Example 186, (1R,2R)-2-((6-((5-fluoroimidazo[1,2-a]pyridin-3-yl)methyl)benzo[d]thiazol-2-yl)amino)cyclohexanol] | 50 to 500 nM | 5 to 20 nM | 200 to 500 nM | 400 to 1500 nM |
| CC(C)(O)C#Cc1cnc2c(c1)ncn2Cc1ccc2nc(N[C@@H]3CCCC[C@H]3O)sc2c1 [Example 104, (1R,2R)-2-((6-((6-(3-hydroxy-3-methylbut-1-yn-1-yl)-3H-imidazo[4,5-b]pyridin-3-yl)methyl)benzo[d]thiazol-2-yl)amino)cyclohexanol] | ≤ 50 nM | ≤ 5 nM | ≤ 50 nM | ≤ 50 nM |
| O[C@@H]1CCCC[C@H]1Nc1nc2ccc(Cn3cnc4cc(C5=CCCCC5)ccc43)cc2s1 [Example 184, (1R,2R)-2-((6-((5-(cyclohex-1-en-1-yl)-1H-benzo[d]imidazol-1-yl)methyl)benzo[d]thiazol-2-yl)amino)cyclohexanol] | 50 to 500 nM | 5 to 20 nM | 200 to 500 nM | 50 to 400 nM |
| O[C@@H]1CCCC[C@H]1Nc1nc2ccc(Cc3cnc4cc(N5CCOCC5)ccn34)cc2s1 [Example 187, (1R,2R)-2-((6-((7-morpholinoimidazo[1,2-a]pyridin-3-yl)methyl)benzo[d]thiazol-2-yl)amino)cyclohexanol] | 500 to 2000 nM | 5 to 20 nM | 50 to 200 nM | 400 to 1500 nM |

More lines, main results first:

| Kd (PDGFRβ) | Kd (CSF1R [1]) | IC50 (CSF1R [2]) | SMILES | IC50 (M-NFS-60 cells) |
| --- | --- | --- | --- | --- |
| ≤ 50 nM | 5 to 20 nM | 50 to 200 nM | OC[C@H]1CCC[C@@H](Nc2nc3ccc(Cn4cnc5cc(F)cnc54)cc3s2)C1 [Example 194, ((1S,3R)-3-((6-((6-fluoro-3H-imidazo[4,5-b]pyridin-3-yl)methyl)benzo[d]thiazol-2-yl)amino)cyclohexyl)methanol] | 50 to 400 nM |
| 500 to 2000 nM | 5 to 20 nM | 50 to 200 nM | CN1CCN(c2ccn3c(Cc4ccc5nc(N[C@@H]6CCCC[C@H]6O)sc5c4)cnc3c2)CC1 [Example 188, (1R,2R)-2-((6-((7-(4-methylpiperazin-1-yl)imidazo[1,2-a]pyridin-3-yl)methyl)benzo[d]thiazol-2-yl)amino)cyclohexanol] | 400 to 1500 nM |
| ≤ 50 nM | 5 to 20 nM | 200 to 500 nM | OC[C@@H]1CCC[C@@H](Nc2nc3ccc(Cn4cnc5cc(F)cnc54)cc3s2)C1 [Example 192, ((1R,3R)-3-((6-((6-fluoro-3H-imidazo[4,5-b]pyridin-3-yl)methyl)benzo[d]thiazol-2-yl)amino)cyclohexyl)methanol] | 400 to 1500 nM |
| 500 to 2000 nM | 5 to 20 nM | 200 to 500 nM | Cc1cc(C)c2c(c1)ncn2Cc1ccc2nc(N[C@@H]3CCCC[C@H]3O)sc2c1 [Example 189] | 50 to 400 nM |
| 500 to 2000 nM | 20 to 50 nM | 200 to 500 nM | N#Cc1cc2ncn(Cc3ccc4nc(N[C@@H]5CCCC[C@H]5O)oc4c3)c2cc1Cl [Example 195, 6-chloro-1-((2-(((1R,2R)-2-hydroxycyclohexyl)amino)benzo[d]oxazol-6-yl)methyl)-1H-benzo[d]imidazole-5-carbonitrile] | 400 to 1500 nM |
| ≤ 50 nM | 5 to 20 nM | ≤ 50 nM | O[C@@H]1[C@H](O)CCC[C@H]1Nc1nc2ccc(Cn3cnc4cc(F)cnc43)cc2s1 [Example 193, (1R,2S,3R)-3-((6-((6-fluoro-3H-imidazo[4,5-b]pyridin-3-yl)methyl)benzo[d]thiazol-2-yl)amino)cyclohexane-1,2-diol] | ≤ 50 nM |
| 500 to 2000 nM | 20 to 50 nM | > 500 nM | Fc1cnc2c(c1)ncn2Cc1ccc2nc(Nc3ccccc3)sc2c1 [Example 191, 6-((6-fluoro-3H-imidazo[4,5-b]pyridin-3-yl)methyl)-N-phenylbenzo[d]thiazol-2-amine] | > 1500 nM |
| 500 to 2000 nM | 20 to 50 nM | > 500 nM | Cc1cc(Br)cc2ncn(Cc3ccc4nc(N[C@@H]5CCCC[C@H]5O)sc4c3)c12 [Example 190, (1R,2R)-2-((6-((5-bromo-7-methyl-1H-benzo[d]imidazol-1-yl)methyl)benzo[d]thiazol-2-yl)amino)cyclohexanol] | 50 to 400 nM |
